Each structure is given as a SMILES string.

Common to all, as to assay type: in vivo, C57BL/6 male mice
Holding throughout (settings): LPS-treated mice, 1×10^9 CFU/mouse or sulfasalazine 50 mg/kg once a day for 5 days

The subject of test [1] is animals with LPS-induced cognitive impairment. The experiment in a line: Animals with LPS-induced cognitive impairment: colitis improvement (colon). The protocol: To 100 mg of colon tissue, 200 μl of 10 mM potassium phosphate buffer (pH 7.0) containing 0.5% hexadecyl trimethyl ammonium bromide was added and homogenized. Then, the supernatant was obtained by centrifugation for 10 minutes at 4° C. and 10,000 g. A volume of 50 μl of the supernatant was added to 0.95 mk of reaction solution (containing 1.6 mM tetramethyl benzidine and 0.1 mM H2O2), reacted at 37° C., and absorbance was monitored over time at 650 nm.
(§1) Hippocampus, colon, and spleen tissues were homogenized by adding 1 ml of RIPA buffer (Gibco) containing protease inhibitor cocktail and centrifuged at 4° C., 13000 rpm for 15 min to obtain supernatant. Indicators of this supernatant were measured using an ELISA kit (Ebioscience).
(§2) C57BL/6 male mice (5 weeks old, 19-21 g) were divided (6 mice in each group) and acclimatized to the laboratory for 1 week. To induce intestinal and brain diseases, mice were intraperitoneally administered Escherichia coli-derived LPS (10 μg/kg) once daily for 5 days. […] Experimental animals in the normal group were orally administered with a physiological saline solution, which was used to suspend lactic acid bacteria. The day following the conclusion of sample administration, the experimental animals were sacrificed, and samples from the brain hippocampus, colon, and spleen were collected. In the Hippocampus, inflammatory indicators, such as IFN-γ, TNF-α, and IL-10, were measured using ELISA. In the colon, intestinal length and inflammatory indicators, such as IFN-γ, TNF-α, and IL-10, were measured. In the spleen, Th1 cells and Treg cells were measured by FACS (Fluorescence-Activated Cell Sorting).

Test [2] has the same test system. The experiment in a line: Animals with LPS-induced cognitive impairment: improvement effect in spleen. The protocol: as §1
mRNA was isolated from spleen tissue using the RNA Isolation Kit: RNeasy Mini Kit (QIAGEN), converted to cDNA, and qPCR was performed to measure the expression rates of Tbet, Foxp3, and glyceraldehyde 3-phosphate dehydrogenase (GAPDH). The reaction product was first treated at 95° C. for 30 seconds, followed by 38 cycles of 5 seconds at 95° C. and 30 seconds at 72° C. for analysis.
as §2

Test [3] has the same test system. Description: Animals with LPS-induced cognitive impairment: cognitive improvement, hippocampus indicators. The protocol: as §1
The Y-shaped maze measurement device is shaped like an alphabetical Y with three arms extending from it, each arm being 25 cm long, 14 cm high, 5 cm wide, and positioned at the same angle. At the end of one arm of the Y-shaped maze, the animal was placed with its head facing out and allowed to freely navigate the arm for 8 minutes. The animal's movements were recorded, and reported as arm entries when the animal entered the arm with its hind paw, and the animal's movement was represented by an alternation, which was defined as one alternation when the animal passed through the three arms in succession. The amount of spontaneous alternation behavior was expressed as a percentage between the actual number of alternations and the maximum possible number of alternations (i.e., the total number of […] minus 2).
The experiment was conducted in a box (40×40×40 cm) made so that the outside could not be seen from the inside. Two objects (A, A′) of the same shape and size were fixedly disposed in a box and the mouse was relocated to start from the center of the box. Then, the number of times the mouse made contact with the two objects was recorded for 10 minutes. After 24 hours, one of the two objects was replaced with a new object (A, B). Then, one original object and one new object were prepared, and the animal's exploration time was measured.
as §2

Turning to `O=C(O)c1cc(/N=N/c2ccc(S(=O)(=O)Nc3ccccn3)cc2)ccc1O` [Sulfasalazine, sulfasalazine, reference compound], in test [1], the “Colon (cm)” value came out at 5.0 cm, the IFN-γ/IL-10 was 2.85, the IL-10 is 15.91 pg/mg and the “Interferon (IFN)-γ” value was determined as 45.4 pg/mg. In test [1], this compound came in with an MPO activity of 4.75 μUnit/mg, a TNF-α of 20.1 pg/mg and a TNF-α/IL-10 of 1.26. This compound also yielded a Tbet/Foxp3 in test [2] (spleen qPCR) of 1.78. In addition, in test [2] (spleen), the IL-10 is recorded as 9.78 pg/mg, the “Interferon (IFN)-γ” value is given as 13.55 pg/mg, the “NK cell cytoxicity (%)” value is 7.92% and the “Phagocytosis (%)” value stood at 39.59%. Besides, in test [2] (spleen), the TNF-α is 4.51 pg/mg and the TNF-α/IL-10 is given as 0.13. In addition, in test [3], the “Exoporation (%) (in NOR task)” value came to 72.02% and the “Spontaneous alteration (%) (in Y-maze task)” value is 69.21%. In addition, in test [3] (hippocampus), the IFN-γ/IL-10 was 0.60, the IL-10 was found to be 45.79 pg/mg, the “Interferon (IFN)-γ” value turned out to be 27.35 pg/mg and the TNF-α was determined as 10.98 pg/mg. This compound had a TNF-α/IL-10 in test [3] (hippocampus) of 0.24.

These data come from patent US20250009819A1, “NOVEL PROBIOTICS AND USE THEREOF” (PBLBIOLAB CO., LTD., priority 2021, published 2025).
